The values below are quoted from earlier work in patent publication US20190224118A1, “ORAL GASTRORETENTIVE FORMULATIONS AND USES THEREOF” (INTEC PHARMA LTD., priority 2016, published 2019).

Turning to `C=C(C)[C@@H]1CCC(C)=C[C@H]1c1c(O)cc(CCCCC)cc1O` [CBD, cannabidiol], the “number of metabolites identified in urine” value (urine) was “more than 33”. On to `CCCCCc1cc(O)c2c(c1)OC(C)(C)[C@@H]1CCC(C)=C[C@@H]21` [Δ9-THC, Δ-9-tetrahydrocannabinol], for which the “plasma levels of active 11-hydroxy metabolite, oral administration versus smoking” value (oral versus smoking) is reported as “about three”.
